# Reference: BindingDB's records for doi:10.1021/jm5008853 (University of Ferrara, 2014)
# pKd: −log10 of the molar value.
# Assay: Allosteric enhancer activity at human adenosine A1 receptor expressed in CHO cell membranes assessed as [3H]NECA affinity constant at 1 uM (Kd = 0.87 +/- 0.04 nM)
compound,measurement,value
CC(C)(C)Cc1c(C#Cc2ccccc2)sc(N)c1C(=O)c1ccc(Cl)cc1,pKd,9.34
